Measured values from US20070243577A1, “Method for the detection of apoptosis by determining apoptosis-specific markers released into an extracellular medium through cellular release mechanisms” (Evotec OAI AG, priority 2000, published 2007).

Tests used:
[1] = tested on: Jurkat cells; test: Extracellular release of cytochrome c into cell culture medium (immunoprecipitation and immunoblot); format: cell-based, human; details: for cytochrome c in the cell culture medium: 16 h, anti-CD95 mAb 1 μg/ml, etoposide 25 μg/ml, doxorubicin 2 μg/ml
Method: 5×10^6 Jurkat cells were cultured in growth medium and either left untreated (control) or stimulated for 16 h with staurosporine (stauro, 2.5 μM), anti-CD95 mAb (α-CD95, 1 μg/ml), etoposide (etopo, 25 μg/ml) or doxorubicin (doxo, 2 μg/ml). Cytochrome c was precipitated from the cell culture medium (m) and the cellular extracts (c) with antibodies against the native molecule. The immunoprecipitated material was separated by SDS-PAGE and analysed by immunoblotting.
5×10^6 Jurkat cells were cultured in growth medium and stimulated for 15 h with the indicated concentrations of anti-CD95 mAb and staurosporine or for 24 h with the indicated concentrations of etoposide or doxorubicin. Cytochrome c was precipitated from the culture medium (m) and the cellular extracts (c) with antibodies against the native molecule. The immunoprecipitated material was separated by SDS-PAGE and analysed by immunoblotting. The quantity of cytochrome c was determined by densitometric analysis. The graphs display the amount of cytochrome c in the culture medium relative to the total amount of cytochrome c present in medium and cells.
1×10^6 Jurkat cells were incubated with medium or staurosporine (stauro, 2.5 μM) and harvested after is the indicated time points (+). A cell culture sample prior to applying staurosporine and a cell culture sample after 15 h without the addition of staurosporine are shown for intercomparison (−). Release of cytochrome c was determined by immunoprecipitation of the medium fractions and subsequent immunoblotting. […] The amounts of cytochrome c in the supernatants indicate the absolute densitometric values.
The human Jurkat T-cell line and mouse L929 fibroblasts were grown at 37° C., 5% CO2, in RPMI-1640 medium supplemented with 10% heat-inactivated fetal calf serum, penicillin and streptomycin (all from GIBCO BRL). Etoposide, actinomycin D and doxorubicin were purchased from Sigma and staurosporine from Roche Diagnostics. All stimuli were dissolved in ethanol and kept at −70° C.

[2] = tested on: Jurkat cells; test: Measurement of cell death by flow cytometry (hypodiploid nuclei, PI uptake); format: cell-based, human
Method: The percentage of apoptotic hypodiploid cells is shown on the right of the histograms. […] 1×10^6 Jurkat cells were incubated with medium or staurosporine (stauro, 2.5 μM) and harvested after the indicated time points.
Also shown is the detection of cell death by PI (propidium iodide) uptake and of apoptosis by detecting hypodiploid nuclei, both by flow cytometry. The percentage of dead cells or apoptotic hypodiploid cells is shown on the right of the histograms. 1×10^6 cells were cultured in normal growth medium (control), or in the presence of staurbsporine (stauro, 2.5 μM) or the indicated concentrations of H2O2 for 18 h. […] As also shown, cell death was detected by PI (propidium iodide) uptake and apoptosis by detecting hypodiploid nuclei, both by flow cytometry.

[3] = tested on: Jurkat cells; test: LDH activity in the supernatant; format: cell-based, human; details: staurosporine 2.5 μM, 15 hours
Method: 1×10^6 Jurkat cells were incubated with medium or staurosporine (stauro, 2.5 μM) and harvested after is the indicated time points (+). A cell culture sample prior to applying staurosporine and a cell culture sample after 15 h without the addition of staurosporine are shown for intercomparison (−). Release of cytochrome c was determined by immunoprecipitation of the medium fractions and subsequent immunoblotting. Heavy; and light chain of anti-cytochrome c antibody and cytochrome c are indicated by open and closed arrowheads, respectively. The LDH activity in the supernatant of apoptotic cells represents the percentage of total LDH activity in the sample. The amounts of cytochrome c in the supernatants indicate the absolute densitometric values. The release of cytochrome c from the cell is a rapid process. Already one hour after apoptosis induction with staurosporine cytochrome c could be detected in the extracellular medium. […] Only about 20% of the total LDH were detected in the supernatants of apoptotic cells after 15 hours of staurosporine treatment.
Cell viability was also determined by monitoring the release of the cytoplasmic enzyme lactate dehydrogenase (LDH), an indicator for cell death. In order to obtain total LDH activity, cells were lysed with 1% Triton X-100. […]

[4] = tested on: L929 cells; test: Measurement of cell death by flow cytometry (hypodiploid nuclei, PI uptake); format: cell-based, mouse; details: TNF-α 10 ng/ml plus actinomycin D 1 μg/ml in presence of zVAD-fmk 100 μM, 8 h
Method: Also shown is the detection of cell death by PI (propidium iodide) uptake and of apoptosis by detecting hypodiploid nuclei, both by flow cytometry. The percentage of dead cells or apoptotic hypodiploid cells is shown on the right of the histograms. 3×10^6 L929 cells were incubated with medium or with TNF-α (10 ng/ml) plus actinomycin D (Act. D, 1 μg/ml) in the absence or presence of the caspase inhibitor zVAD-fmk (benzyloxycarbonyl-Val-Ala-Asp-fluoromethylketone, zVAD, 100 μM) for 8 h. The release of cytochrome c was determined by immunoprecipitation of culture medium (m) and for intercomparison of corresponding cellular extracts (c) and subsequent immunoblotting. […] As also shown, cell death was detected by PI (propidium iodide) uptake and apoptosis by detecting hypodiploid nuclei, both by flow cytometry. […]
For determination of apoptosis, Jurkat and L929 cells were seeded in microtiter plates and treated with the cytotoxic agents for the indicated time periods. […] Briefly, apoptotic nuclei were prepared by lysing cells in a hypotonic lysis buffer (1% sodium citrate, 0.1% Triton X-100, 50 μg/ml propidium iodide) and subsequently analysed by flow cytometry. In parallel, cell death as assessed by membrane damage was determined by the uptake of propidium iodide (PI, 2 μg/ml in PBS; Sigma) into non-fixed cells. […]

[5] = tested on: L929 cells; test: Extracellular release of cytochrome c into cell culture medium (immunoprecipitation and immunoblot); format: cell-based, mouse; details: TNF-α 10 ng/ml plus actinomycin D 1 μg/ml in presence of zVAD-fmk 100 μM, 8 h
Method: 3×10^6 L929 cells were incubated with medium or with TNF-α (10 ng/ml) plus actinomycin D (Act. D, 1 μg/ml) in the absence or presence of the caspase inhibitor zVAD-fmk (benzyloxycarbonyl-Val-Ala-Asp-fluoromethylketone, zVAD, 100 μM) for 8 h. The release of cytochrome c was determined by immunoprecipitation of culture medium (m) and for intercomparison of corresponding cellular extracts (c) and subsequent immunoblotting. Heavy and light chain of the anti-cytochrome c antibody and cytochrome c are indicated by open and closed arrowheads, respectively.
The human Jurkat T-cell line and mouse L929 fibroblasts were grown at 37° C., 5% CO2, in RPMI-1640 medium supplemented with 10% heat-inactivated fetal calf serum, penicillin and streptomycin (all from GIBCO BRL). […] The broad-range caspase inhibitor benzyloxycarbonyl-Val-Ala-Asp-fluoromethylketone (zVAD-fmk) was purchased from Enzyme Systems (Dublin, Calif.); all other chemicals were from Merck KG or Roth GmbH.
To determine the cellular cytochrome c content, cells were collected by centrifugation, washed in cold PBS and extracted in cold lysis buffer (50 mM Tris, pH 7.4, 150 mM NaCl, 1% Triton-X100 containing 3 μg/ml aprotinin, 3 μg/ml leupeptin, 3 μg/ml pepstatin and 2 mM PMSF). […] The amount of immunoprecipitated cytochrome c was determined by densitometric analysis using the NIH image software (National Institutes of Health).

[6] = Jurkat cells, staurosporine 2.5 μM
[7] = Jurkat T-cells, 100 μM and 250 μM, 18 h

COc1cccc2c1C(=O)c1c(O)c3c(c(O)c1C2=O)C[C@@](O)(C(=O)CO)C[C@@H]3O[C@H]1C[C@H](N)[C@H](O)[C@H](C)O1 [doxorubicin]
cytochrome c in the cell culture medium [1, 6]: large amounts of cytochrome c

COc1cc([C@@H]2c3cc4c(cc3[C@@H](O[C@@H]3O[C@@H]5CO[C@@H](C)O[C@H]5[C@H](O)[C@H]3O)[C@H]3COC(=O)[C@H]23)OCO4)cc(OC)c1O [etoposide]
cytochrome c in the cell culture medium [1, 6]: large amounts of cytochrome c

OO [hydrogen peroxide]
cytochrome c release into the extracellular cell culture medium [1, 7]: no cytochrome c release
mode of cell death (PI uptake, hypodiploid nuclei) [2, 7]: induced necrotic death

CN[C@@H]1C[C@H]2O[C@@](C)([C@@H]1OC)n1c3ccccc3c3c4c(c5c6ccccc6n2c5c31)C(=O)NC4 [staurosporine]
cytochrome c in the cell culture medium [1, 6]: large amounts of cytochrome c
time at which cytochrome c could be detected in the extracellular medium [1, 6]: one hour
time until formation of hypodiploid nuclei after triggering apoptosis [2, 6]: ≥ 5 h
LDH detected in the supernatants, percentage of total LDH [3]: about 20%

benzyloxycarbonyl-Val-Ala-Asp-fluoromethylketone [zVAD-fmk]
mode of cell death (hypodiploid nuclei, PI uptake) [4]: resulted in necrosis
extracellular cytochrome c release [5]: not during necrotic cell death
